Values of other authors, collected in patent US9434994B2, “Methods for prediction of clinical outcome to epidermal growth factor receptor inhibitors by non-small cell lung cancer patients” (The Regents of the University of Colorado, a body corporate, priority 2004, dated 2016).

Columns and labels:
[1] = tested on: chemotherapy resistant NSCLC patients; settings: single agent; cited from earlier work
NSCLC patients = settings: erlotinib versus placebo, second or third line; cited from earlier work
advanced BAC patients = settings: cited from earlier work

Compound: C#Cc1cccc(Nc2ncnc3cc(OCCOC)c(OCCOC)cc23)c1 [erlotinib]
- response rates [1]: about 10%
- Hazard Ratio, survival (NSCLC patients): 0.73

Compound: CC(=O)O[C@H]1C(=O)[C@@]2(C)[C@H]([C@H](OC(=O)c3ccccc3)[C@]3(O)C[C@H](OC(=O)[C@H](O)[C@@H](NC(=O)c4ccccc4)c4ccccc4)C(C)=C1C3(C)C)[C@]1(OC(C)=O)CO[C@@H]1C[C@@H]2O [paclitaxel]
- Median Survival (advanced BAC patients): 12 months
